“Also recorded” adds a separate entry of the source.

The results in this text go back to US20140128333A1, “Compounds, Compositions, and Methods for Decreasing Intestinal Glucose Uptake and Inducing Incretin Release” (MAQUI NEW LIFE S.A., priority 2012, published 2014).

One assay deals with T1, SGLT-1 (Mus musculus, UniProt Q8C3K6).
T1 construct: Two sections of jejunum per animal were mounted in Ussing Chambers; from tissue; host or cells: jejunum of C57Bl/6J mice
T1 sequence (Q8C3K6 1-665): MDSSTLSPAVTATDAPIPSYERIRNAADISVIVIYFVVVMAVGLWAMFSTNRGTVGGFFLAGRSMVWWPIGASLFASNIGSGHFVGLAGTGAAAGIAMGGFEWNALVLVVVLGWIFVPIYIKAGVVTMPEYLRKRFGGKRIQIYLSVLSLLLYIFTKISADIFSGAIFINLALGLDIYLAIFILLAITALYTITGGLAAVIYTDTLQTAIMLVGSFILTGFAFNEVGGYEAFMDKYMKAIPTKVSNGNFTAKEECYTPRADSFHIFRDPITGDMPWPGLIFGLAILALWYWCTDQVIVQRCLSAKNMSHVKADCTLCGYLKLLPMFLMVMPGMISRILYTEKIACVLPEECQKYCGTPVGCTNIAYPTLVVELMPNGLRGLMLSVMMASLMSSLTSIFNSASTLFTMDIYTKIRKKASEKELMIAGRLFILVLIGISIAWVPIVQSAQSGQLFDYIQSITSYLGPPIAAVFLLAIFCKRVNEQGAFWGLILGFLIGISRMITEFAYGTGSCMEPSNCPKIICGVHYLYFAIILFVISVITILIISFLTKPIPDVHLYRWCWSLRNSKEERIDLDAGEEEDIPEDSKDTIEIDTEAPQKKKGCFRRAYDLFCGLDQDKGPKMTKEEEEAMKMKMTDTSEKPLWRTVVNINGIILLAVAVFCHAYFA
Description: Ussing chamber: sodium-coupled D-glucose transport in mouse jejunum (short circuit current). To be noted: 50 μM delphinidin on mucosal side. An excerpt:
C57B1/6J mice were obtained from The Jackson Laboratory (Bar Harbor, Me., USA). The mice were maintained at the Specific Pathogen Free mouse facility of the Centro de Estudios Científicos (CECS), Valdivia, Chile and prior to the experiments they had free access to water and food. Animals were killed by cervical dislocation according to local Institutional Animal Care and Use Committee (IACUC) regulations. The jejunum was isolated, open longitudinally along the mesenteric border and rinsed with phosphate buffered saline (PBS).
Two sections of jejunum per animal were mounted in Ussing Chambers and maintained in Ussing buffer (120 Mm NaCl, 25 mM NaHCO3, KH2PO4 3.3 mM, 0.8 mM K2HPO4, 1.2 mM MgCl2 and 1.2 mM CaCl2) supplemented with 10 mM D-glucose in the serosal side. […] The effect of delphinidin on sodium-coupled transport of glucose was determined by application of this molecule at a concentration of 50 μM in the mucosal side of the preparation. The transepithelial electrical potential difference (VM), defined as the potential side compared to serous mucus preparation was recorded continuously under current clamp configuration using a VCC MC2 amplifier (Physiological Instruments). The values of short circuit current (Isc) were calculated from experimental data using Ohm's law. The results are expressed as the intensity of the Isc (μA/cm^2). […]

For another assay, the target named is T2, GPR40 receptor (Homo sapiens, UniProt O14842).
T2 construct: To assess and ensure the participation of GPR40 on calcium mobilization induced by delphinidin and cyanidin, Fura-2/AM-loaded HT-29 cells; endogenous in cells; host or cells: HT-29 cells
T2 sequence (O14842 whole entry): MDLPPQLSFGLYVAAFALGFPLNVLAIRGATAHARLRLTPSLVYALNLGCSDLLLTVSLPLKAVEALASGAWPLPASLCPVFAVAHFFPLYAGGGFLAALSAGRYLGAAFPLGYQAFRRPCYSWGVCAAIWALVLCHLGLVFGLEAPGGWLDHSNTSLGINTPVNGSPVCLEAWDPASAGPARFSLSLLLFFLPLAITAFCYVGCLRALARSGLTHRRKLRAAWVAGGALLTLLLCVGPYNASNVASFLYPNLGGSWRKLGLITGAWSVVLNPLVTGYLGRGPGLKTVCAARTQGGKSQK
Description: Measurement of calcium influx in Fura-2/AM-loaded HT-29 cells. To be noted: 100 μM. The class given is cell-based.

The subject of the next assay is GLP-1 mRNA expression. Description: GLP-1 mRNA expression in NCI-H716 cells by qRT-PCR. The class given is cell-based. To be noted: delphinidin 10, 50 or 100 μM tested, increase at 50 and 100 μM, 24 h. The procedure:
Total RNA was isolated from […] cells using the RNeasy Plus Mini Kit according to the manufacturer's instructions. Approximately 1 μg of total RNA, 0.5 μg of oligo (dT)18 primer, 10 mM dNTPs and 200 U of reverse transcriptase were used for each cDNA synthesis reaction. PCR amplifications were performed using the Brilliant II SYBR Green QPCR Master Mix (Stratagene) according to the manufacturer's instructions. All reactions were carried out using an Mx300p thermal cycler (Stratagene, Calif., USA). GLP-1 specific primers were used.

The subject of another assay is GLP-1 production. Description: GLP-1 production in NCI-H716 cells by flow cytometry. To be noted: 50 μM delphinidin, 48 hrs, Brefeldin A. The format is cell-based. The protocol:
After two washes in PBS, the cells were stained with mouse anti-GLP-1 antibody for 1 hr at 4° C. The cells were washed twice with PBS, incubated for 1 hr at 4° C. with anti-mouse Alexa 488 (1:200 dilution) and finally washed twice with PBS. The cells were assessed by flow cytometry on a FACSCanto II (Becton Dickinson).

Description for GPR40 receptor: HT-29 cells were suspended in HBSS at a concentration of 20×10^6 cells/ml and incubated with 1 μM Fura-2/AM (Molecular Probes) for 30 min at 37° C. The cells were then washed twice, divided into 2×10^6 cells/ml aliquots and maintained at 4° C. in the dark until use. Cells were then pelleted by centrifugation at 1200 rpm for 6 min and re-suspended in 2 ml HEPES buffer [20 mM HEPES, pH 7.2; 140 mM NaCl; 10 mM glucose; 1 mM KCl; 1 mM Ca^2+ chloride (CaCl2); and 1 mM MgCl2].
The influx of Ca^2+ was recorded as the 340:380 excitation ratio at 509 nm emission in a LS55 thermoregulated spectrofluorimeter (Perkin-Elmer, Mass., USA).

`Oc1cc(O)c2cc(O)c(-c3cc(O)c(O)c(O)c3)[o+]c2c1` [Delphinidin, 2-(3,4,5-trihydroxyphenyl)chromenylium-3,5,7-triol]: the “decrease of sodium current (Isc) induced by 10 mM D-glucose / inhibition of glucose transport by jejunal mucosa” value is given as “about 40%” at SGLT-1 (n=4) and “approximately 60%” at SGLT-1 (n=4, listed as delphinidin). In addition, on GPR40 receptor, the “calcium fluxes (340/380 ratio) in HT-29 cells” value was “induces calcium fluxes”. Moreover, the “expression of GLP-1 mRNA with respect to control” value in the assay with GLP-1 mRNA expression is on record as “induces; also recorded: increased”. In addition, in the assay on GLP-1 production, the “amount of GLP-1 compared to control cells” value was “induced an increase”.
